Results from patent publication US20060040871A1, “Bacterial transforming agent” (priority 2003, published 2006).

What was measured:
Format in all cases: cell-based, Staphylococcus aureus
MRSA [1] = conditions: 2% glycine; only in the presence of glycine
MRSA [2] = test: Screening on Isosensitest agar with incorporated BTA and 10 μg methicillin discs; conditions: BTA 0.01-1.0% in Isosensitest agar; 10 μg methicillin discs; reference MRSA (type strain), OMRSA, EMRSA-1, EMRSA-16
Experimental: To find substances related to GBE that might have increased potency, various substances, including those with additional glycine moieties and benzylates, have been screened. Screening was carried out using Isosensitest agar (Oxoid, UK) into which various levels of potential BTAs were incorporated at levels between 0.01 and 1.0%. The agar with incorporated BTA was then used in the manner of a standard antibiotic sensitivity test using 10 μg methicillin discs. The test organism was inoculated onto the agar surface at a concentration suitable to achieve confluent growth after 18 hours incubation at 30° C. After incubation, zone diameters were compared with that achieved by the control plate (Isosensitest alone) for each test organism.

MRSA [3] = test: MIC of methicillin for MRSA isolates grown with glycine or GBE (Table 1)

NCC(=O)O [Glycine, glycine]
transformation of MRSA into methicillin-sensitive strains (MRSA [1]): transformed all MRSA into methicillin-sensitive strains
transformation of MRSA (methicillin disc zone diameter versus control plate) (MRSA [2]): transformed
strains tested achieving the target MIC (MRSA [3]; 0.2 M glycine, said of Table 1): 50%
MIC of methicillin (MRSA [3]; CD40 (EMRSA-1), glycine 0.02M (0.15%)): 32 µg/mL
MIC of methicillin (MRSA [3]; CD40 (EMRSA-1), glycine 0.2M (1.5%)): 4 µg/mL
MIC of methicillin (MRSA [3]; DS09 (EMRSA-1), glycine 0.02M (0.15%)): 32 µg/mL
MIC of methicillin (MRSA [3]; DS09 (EMRSA-1), glycine 0.2M (1.5%)): 4 µg/mL
MIC of methicillin (MRSA [3]; E15-97 (EMRSA-15), glycine 0.02M (0.15%)): 32 µg/mL
MIC of methicillin (MRSA [3]; E15-97 (EMRSA-15), glycine 0.2M (1.5%)): 4 µg/mL
MIC of methicillin (MRSA [3]; E16-96 (EMRSA-16), glycine 0.02M (0.15%)): 32 µg/mL
MIC of methicillin (MRSA [3]; E16-96 (EMRSA-16), glycine 0.2M (1.5%)): 4 µg/mL
MIC of methicillin (MRSA [3]; JF1-32 (EMRSA-1), glycine 0.02M (0.15%)): 32 µg/mL
MIC of methicillin (MRSA [3]; JF1-32 (EMRSA-1), glycine 0.2M (1.5%)): 4 µg/mL
MIC of methicillin (MRSA [3]; L265, glycine 0.02M (0.15%)): 64 µg/mL
MIC of methicillin (MRSA [3]; L265, glycine 0.2M (1.5%)): 8 µg/mL
MIC of methicillin (MRSA [3]; L266, glycine 0.02M (0.15%)): 64 µg/mL
MIC of methicillin (MRSA [3]; L266, glycine 0.2M (1.5%)): 8 µg/mL
MIC of methicillin (MRSA [3]; L267, glycine 0.02M (0.15%)): 32 µg/mL
MIC of methicillin (MRSA [3]; L267, glycine 0.2M (1.5%)): 8 µg/mL
MIC of methicillin (MRSA [3]; L268, glycine 0.02M (0.15%)): 32 µg/mL
MIC of methicillin (MRSA [3]; L268, glycine 0.2M (1.5%)): 8 µg/mL
MIC of methicillin (MRSA [3]; L269, glycine 0.02M (0.15%)): 16 µg/mL
MIC of methicillin (MRSA [3]; L269, glycine 0.2M (1.5%)): 4 µg/mL
MIC of methicillin (MRSA [3]; L270, glycine 0.02M (0.15%)): 8 µg/mL
MIC of methicillin (MRSA [3]; L270, glycine 0.2M (1.5%)): 4 µg/mL
MIC of methicillin (MRSA [3]; L271, glycine 0.02M (0.15%)): 8 µg/mL
MIC of methicillin (MRSA [3]; L271, glycine 0.2M (1.5%)): 4 µg/mL
MIC of methicillin (MRSA [3]; L272, glycine 0.02M (0.15%)): 16 µg/mL
MIC of methicillin (MRSA [3]; L272, glycine 0.2M (1.5%)): 2 µg/mL
MIC of methicillin (MRSA [3]; L273, glycine 0.02M (0.15%)): 8 µg/mL
MIC of methicillin (MRSA [3]; L273, glycine 0.2M (1.5%)): 4 µg/mL
MIC of methicillin (MRSA [3]; L274, glycine 0.02M (0.15%)): 16 µg/mL
MIC of methicillin (MRSA [3]; L274, glycine 0.2M (1.5%)): 4 µg/mL
MIC of methicillin (MRSA [3]; L275, glycine 0.02M (0.15%)): 32 µg/mL
MIC of methicillin (MRSA [3]; L275, glycine 0.2M (1.5%)): 8 µg/mL
MIC of methicillin (MRSA [3]; L276, glycine 0.02M (0.15%)): 16 µg/mL
MIC of methicillin (MRSA [3]; L276, glycine 0.2M (1.5%)): 4 µg/mL
MIC of methicillin (MRSA [3]; L277, glycine 0.02M (0.15%)): 8 µg/mL
MIC of methicillin (MRSA [3]; L277, glycine 0.2M (1.5%)): 4 µg/mL
MIC of methicillin (MRSA [3]; L278, glycine 0.02M (0.15%)): 64 µg/mL
MIC of methicillin (MRSA [3]; L278, glycine 0.2M (1.5%)): 16 µg/mL
MIC of methicillin (MRSA [3]; L279, glycine 0.02M (0.15%)): 64 µg/mL
MIC of methicillin (MRSA [3]; L279, glycine 0.2M (1.5%)): 2 µg/mL
MIC of methicillin (MRSA [3]; L280, glycine 0.02M (0.15%)): 16 µg/mL
MIC of methicillin (MRSA [3]; L280, glycine 0.2M (1.5%)): 4 µg/mL
MIC of methicillin (MRSA [3]; L281, glycine 0.02M (0.15%)): 32 µg/mL
MIC of methicillin (MRSA [3]; L281, glycine 0.2M (1.5%)): 4 µg/mL
MIC of methicillin (MRSA [3]; L282, glycine 0.02M (0.15%)): 32 µg/mL
MIC of methicillin (MRSA [3]; L282, glycine 0.2M (1.5%)): 4 µg/mL
MIC of methicillin (MRSA [3]; L283, glycine 0.02M (0.15%)): 32 µg/mL
MIC of methicillin (MRSA [3]; L283, glycine 0.2M (1.5%)): 4 µg/mL
MIC of methicillin (MRSA [3]; L284, glycine 0.02M (0.15%)): 32 µg/mL
MIC of methicillin (MRSA [3]; L284, glycine 0.2M (1.5%)): 2 µg/mL
MIC of methicillin (MRSA [3]; L285, glycine 0.02M (0.15%)): 32 µg/mL
MIC of methicillin (MRSA [3]; L285, glycine 0.2M (1.5%)): 4 µg/mL
MIC of methicillin (MRSA [3]; L286, glycine 0.02M (0.15%)): 32 µg/mL
MIC of methicillin (MRSA [3]; L286, glycine 0.2M (1.5%)): 4 µg/mL
MIC of methicillin (MRSA [3]; L287, glycine 0.02M (0.15%)): 32 µg/mL
MIC of methicillin (MRSA [3]; L287, glycine 0.2M (1.5%)): 4 µg/mL
MIC of methicillin (MRSA [3]; L288, glycine 0.02M (0.15%)): 32 µg/mL
MIC of methicillin (MRSA [3]; L288, glycine 0.2M (1.5%)): 4 µg/mL
MIC of methicillin (MRSA [3]; L289, glycine 0.02M (0.15%)): 32 µg/mL
MIC of methicillin (MRSA [3]; L289, glycine 0.2M (1.5%)): 4 µg/mL
MIC of methicillin (MRSA [3]; L290, glycine 0.02M (0.15%)): 32 µg/mL
MIC of methicillin (MRSA [3]; L290, glycine 0.2M (1.5%)): 4 µg/mL
MIC of methicillin (MRSA [3]; L291, glycine 0.02M (0.15%)): 32 µg/mL
MIC of methicillin (MRSA [3]; L291, glycine 0.2M (1.5%)): 4 µg/mL
MIC of methicillin (MRSA [3]; L292, glycine 0.02M (0.15%)): 32 µg/mL
MIC of methicillin (MRSA [3]; L292, glycine 0.2M (1.5%)): 4 µg/mL
MIC of methicillin (MRSA [3]; L293, glycine 0.02M (0.15%)): 32 µg/mL
MIC of methicillin (MRSA [3]; L293, glycine 0.2M (1.5%)): 4 µg/mL
MIC of methicillin (MRSA [3]; L294, glycine 0.02M (0.15%)): 32 µg/mL
MIC of methicillin (MRSA [3]; L294, glycine 0.2M (1.5%)): 4 µg/mL
MIC of methicillin (MRSA [3]; MC01 (EMRSA-1), glycine 0.02M (0.15%)): 32 µg/mL
MIC of methicillin (MRSA [3]; MC01 (EMRSA-1), glycine 0.2M (1.5%)): 4 µg/mL
MIC of methicillin (MRSA [3]; NCTC 12493, glycine 0.02M (0.15%)): 0.12 µg/mL
MIC of methicillin (MRSA [3]; NCTC 12493, glycine 0.2M (1.5%)): 0.06 µg/mL
MIC of methicillin (MRSA [3]; PS3-32 (EMRSA-1), glycine 0.02M (0.15%)): 32 µg/mL
MIC of methicillin (MRSA [3]; PS3-32 (EMRSA-1), glycine 0.2M (1.5%)): 4 µg/mL
MIC of methicillin (MRSA [3]; SN31 (EMRSA-1), glycine 0.02M (0.15%)): 32 µg/mL
MIC of methicillin (MRSA [3]; SN31 (EMRSA-1), glycine 0.2M (1.5%)): 4 µg/mL
MIC of methicillin (MRSA [3]; ST11 (EMRSA-1), glycine 0.02M (0.15%)): 32 µg/mL
MIC of methicillin (MRSA [3]; ST11 (EMRSA-1), glycine 0.2M (1.5%)): 4 µg/mL
